Laboratory results taken from patent US20030157159A1, “Prevention and treatment of digestive tract infections” (priority 2002, published 2003).

Experiments:
H. pylori strain #26695 = assay: bactericidal effect of selected terpenes on H. pylori viability; format: cell-based, Helicobacter pylori; parameters: key: *NG = no growth; **TNTC = Too Numerous To Count; settings: 10^6 cfu, 24 hours
Protocol: Five terpenes (anethole, carvone, citral, geraniol and b-ionone) were used for this study. […] The H. pylori used was strain #26695 of […], this bacteria is a motile, cag A, vac A cytotoxin-positive gram negative bacteria which colonizes gnotobiotic piglets and indefinitely persists within the gastric microenvironment as a superficial infection of the gastric mucosa and mucus layer. 1) Stock solutions of each terpene with polysorbate-80 were prepared (1.8 ml terpene plus 0.2 ml polysorbate-80. […] 3) A total of 1.0×10^6 bacteria (30 ul) was added to 970 ul terpene dilutions (final volume of 1.0 ml) in loosely capped tubes and incubated for 24 hours at 37° C. with continuous mixing. […] Bacterial colony forming units (cfu) were determined visual (counting) inspection. Recovered bacteria were confirmed to be H. pylori by catalase and urease enzyme activities.

E. coli = settings: cited from earlier work
[1] = tested on: E. coli strains AW574 or AW405; assay: Lysis of E. coli by terpenes (B-galactosidase/ONPG assay); format: cell-based
Source text: Lysis of the cell membrane was monitored by the determination of galactosidase activity. B-galactosidase is a well-characterized cytosolic enzyme in bacteria. This enzyme is inducible in the presence of isopropyl-1-thiogalactosidase (IPTG) and assayed colorimetricaly with substrate o-nitro-phenyl-B-D-galactoside (ONPG). ONPG is cleaved to release o-nitrophenol with peak absorbance at 420 nm. Since intact E. coli is impermeable to both ONPG and the enzyme, the cells have to be lysed prior to enzymatic assay. Therefore the ability of terpenes to lyse E. coli can be measured with this enzymatic assay and compared to known lysing agents. The procedure used was as follows: E. coli strains AW574 or AW405 were cultured overnight in 10 ml tryptone broth with […] at 35° C. Cells were allowed to growth after an absorbance equal to 0.9 was reached. Cells were harvested, washed with phosphate buffer and resuspended to an absorbance equal to 0.5. One tenth of a ml of the bacteria culture was added to 0.9 ml of buffer, warmed to 30° C. and then 80 ul of terpenes (85% terpenes and 15% polysorbate-80), 80 ul water (background) or 40 ul chloroform plus 40 ul 1% SDS in water (positive control) were added. After the addition of the lysing agents the tubes were mixed for 10 seconds and 0.2 ml of ONPG (4 mg/ml water) was added, then incubated for 5 minutes. The enzyme activity was stopped with 0.5 ml of 1 M sodium carbonate. After being centrifuged for 3 minutes at 1,500×g, supernatant was transferred to cuvettes and read at 420 nm. The relative degree of lysis caused by terpenes was calculated as follows:
100×(OD terpenes−OD water)/(OD chloroform−OD water)

E. coli strain AW574 = assay: single terpene or combination against E. coli growth (O.D.); format: cell-based; settings: single terpene 2 uMol; 24 hours; compared to the control treatment
Protocol: The objective of this example was to determine an optimum terpene mixture which could have a greater biocidal effect. E. coli strain AW574 was grown in tryptone broth to an exponential growth phase (O.D. between 0.4 and 1.0 at 590 nm). One tenth of this growth was inoculated to 10 ml of tryptone broth following by the addition of individual terpenes or as indicated on table 2; then incubated for 24 hours at 35-37° C. and the O.D. determined in each tube. The concentration of terpenes was 1 or 2 uMol. Each treatment was repeated in triplicate. The results are expressed as percentage bacterial growth as compared to the control treatment. It is observed that the combination of terpenes give better biocidal effect than single terpenes, with geraniol and carvone better than b-ionone.

Traveler's Diarrhea = settings: Ericsson, Charles (1998); cited from earlier work
H pylori = settings: in vitro; cited from earlier work
[2] = final dilution 1:10 of stock (90% terpene plus 10% polysorbate-80)
[3] = final dilution 1:10000 of stock
[4] = final dilution 1:50000 of stock

Molecule	H. pylori growth (cfu recovered) (H. pylori strain #26695; [2])	H. pylori growth (cfu recovered) (H. pylori strain #26695; final dilution 1:50 of stock)	H. pylori growth (cfu recovered) (H. pylori strain #26695; final dilution 1:100 of stock)	H. pylori growth (cfu recovered) (H. pylori strain #26695; final dilution 1:500 of stock)	H. pylori growth (cfu recovered) (H. pylori strain #26695; final dilution 1:1000 of stock)	H. pylori growth (cfu recovered) (H. pylori strain #26695; final dilution 1:5000 of stock)	H. pylori growth (cfu recovered) (H. pylori strain #26695; [3])	H. pylori growth (cfu recovered) (H. pylori strain #26695; [4])	% growth (E. coli strain AW574)	further results
CC=Cc1ccc(OC)cc1 [Anethole]	NG	NG	NG	NG	10^3 cfu	10^3 cfu	TNTC	TNTC		
CC(C)=CCCC(C)=CC=O [Citral]	NG	NG	NG	NG	NG	NG	NG	TNTC		concentration in growth media that reduced the concentration of E. coli (E. coli): more than 0.01%; concentration with bactericidal effect (E. coli; growth media): 0.08%
CC(=O)/C=C/C1=C(C)CCCC1(C)C [b-Ionone]	NG	NG	NG	NG	NG	NG	NG	TNTC	84.00%	Relative lysis ([1]; 0.0308 uM): 1.3%; Relative lysis ([1]; 0.308 uM): 4.78%; Relative lysis ([1]; 3.08 uM): 23%; Relative lysis ([1]; 30.8 uM): 44%; Relative lysis ([1]; 308 uM): 52%
C=C(C)C1CC=C(C)C(=O)C1 (stereo not shown) [Carvone]	NG	NG	NG	NG	NG	10^4 cfu	TNTC	TNTC	63.00%	Relative lysis ([1]; 404 uM): 3.2%; Relative lysis ([1]; 4,040 uM): 22%; Relative lysis ([1]; 40,400 uM): 54%
Trimethropim-sulfamethoxazole [reference compound]										Efficacy (Traveler's Diarrhea): 70-80% protective
Lactobacillus										Efficacy (Traveler's Diarrhea): Not proven
CC(C)=CCC/C(C)=C/CO [Geraniol]	NG	NG	NG	NG	NG	NG	10^2 cfu	TNTC	54.00%	Relative lysis ([1]; 3.63 uM): 2.4%; Relative lysis ([1]; 36.3 uM): 4%; Relative lysis ([1]; 363 uM): 34%; Relative lysis ([1]; 3,630 uM): 98%; Relative lysis ([1]; 36,300 uM): 96%; concentration that inhibited the growth of H pylori (H pylori): 2 mg/lt.
Polysorbate-80 [reference compound]	NG*	NG	NG	10^3 cfu	10^4 cfu	TNTC**	TNTC	TNTC		Relative lysis ([1]; 80 ul Polysorbate-80): 3.2%
